Columns and labels:
Assay in all cases: Test C greenhouse herbicide test, pre- and postemergence
Format in all cases: in vivo
soybean (Glycine max) = tested on: soybean (Glycine max)
Summary of the method: (§1)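 Seeds sown in loam–sand blend treated preemergence; plants in peat-based medium sprayed postemergence at 2–18 cm (1- to 4-leaf stage); chemicals in non-phytotoxic solvent with surfactant. Greenhouse 13–15 d, then visual rating versus controls on 0–100 scale (0 no effect, 100 complete control).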

[1] = tested on: ryegrass, Italian (Italian ryegrass, Lolium multiflorum)
Summary of the method: as §1

[2] = tested on: galium (catchweed bedstraw, Galium aparine)
Summary of the method: as §1

[3] = tested on: wheat (winter wheat, Triticum aestivum)
Summary of the method: as §1

[4] = tested on: pigweed (Amaranthus retroflexus)
Summary of the method: as §1

[5] = tested on: morningglory (Ipomoea coccinea)
Summary of the method: as §1

[6] = tested on: velvetleaf (Abutilon theophrasti)
Summary of the method: as §1

[7] = tested on: crabgrass, large (large crabgrass, Digitaria sanguinalis)
Summary of the method: as §1

[8] = tested on: lambsquarters (Chenopodium album)
Summary of the method: as §1

[9] = tested on: waterhemp (common waterhemp, Amaranthus rudis)
Summary of the method: as §1

[10] = tested on: foxtail, giant (giant foxtail, Setaria faberii)
Summary of the method: as §1

[11] = tested on: blackgrass (Alopecurus myosuroides)
Summary of the method: as §1

[12] = tested on: nutsedge, yellow (yellow nutsedge, Cyperus esculentus)
Summary of the method: as §1

corn (Zea mays) = tested on: corn (Zea mays)
Summary of the method: as §1

[13] = tested on: barnyardgrass (Echinochloa crus-galli)
Summary of the method: as §1

[14] = Postemergence, 31 g ai/ha, 0 to 100 scale (0 no effect, 100 complete control)
[15] = Postemergence, 125 g ai/ha, scale 0 to 100, 0 is no effect, 100 is complete control
[16] = Postemergence, 250 g ai/ha, scale 0 to 100, 0 no effect, 100 complete control, 13 to 15 d
[17] = Preemergence, 31 g ai/ha, scale 0 to 100, 0 is no effect, 100 is complete control
[18] = Preemergence, 62 g ai/ha, scale 0 to 100, 0 is no effect, 100 is complete control
[19] = Preemergence, 125 g ai/ha, scale 0 to 100, 0 is no effect, 100 is complete control
[20] = Preemergence, 250 g ai/ha, scale 0 to 100, 0 no effect, 100 complete control
[21] = postemergence, 62 g ai/ha, scale 0 to 100, 0 no effect, 100 complete control
[22] = Postemergence, 31 g ai/ha, scale 0 to 100 (0 no effect, 100 complete control)
[23] = Postemergence, 62 g ai/ha, 0 to 100 scale (0 no effect, 100 complete control)
[24] = postemergence, 125 g ai/ha, scale 0 to 100, 0 no effect, 100 complete control

CCc1sc2c(C)cc(C)cc2c1-c1c(O)c(C)nn(C)c1=O [Compound 57]
Soybean plant response rating (soybean (Glycine max); [14]): 0
Plant response rating, Soybean (soybean (Glycine max); [15]): 0
Plant response rating, Soybean (soybean (Glycine max); [16]): 5
Plant response rating, Soybean (soybean (Glycine max); [17]): 0
Plant response rating, Soybean (soybean (Glycine max); [18]): 0
Plant response rating, Soybean (soybean (Glycine max); [19]): 0
Soybean plant response rating (soybean (Glycine max); [20]): 0
Soybean plant response rating (soybean (Glycine max); [21]): 0
Ryegrass, Italian plant response rating [1, 14]: 25
Plant response rating, Ryegrass, Italian [1, 15]: 50
Plant response rating, Ryegrass, Italian [1, 16]: 60
Plant response rating, Ryegrass, Italian [1, 17]: 45
Plant response rating, Ryegrass, Italian [1, 18]: 65
Plant response rating, Ryegrass, Italian [1, 19]: 70
Ryegrass, Italian plant response rating [1, 20]: 85
Ryegrass, Italian plant response rating [1, 21]: 30
Galium plant response rating [2, 14]: 95
Plant response rating, Galium [2, 15]: 95
Plant response rating, Galium [2, 16]: 100
Plant response rating, Galium [2, 17]: 80
Plant response rating, Galium [2, 18]: 90
Plant response rating, Galium [2, 19]: 95
Galium plant response rating [2, 20]: 98
Galium plant response rating [2, 21]: 95
Wheat plant response rating [3, 14]: 0
Plant response rating, Wheat [3, 15]: 0
Plant response rating, Wheat [3, 16]: 5
Plant response rating, Wheat [3, 17]: 0
Plant response rating, Wheat [3, 18]: 0
Plant response rating, Wheat [3, 19]: 0
Wheat plant response rating [3, 20]: 5
Wheat plant response rating [3, 21]: 0
Pigweed plant response rating [4, 14]: 60
Plant response rating, Pigweed [4, 15]: 85
Plant response rating, Pigweed [4, 16]: 100
Plant response rating, Pigweed [4, 17]: 100
Plant response rating, Pigweed [4, 18]: 100
Plant response rating, Pigweed [4, 19]: 100
Pigweed plant response rating [4, 20]: 100
Pigweed plant response rating [4, 21]: 80
Morningglory plant response rating [5, 14]: 95
Plant response rating, Morningglory [5, 15]: 100
Plant response rating, Morningglory [5, 16]: 100
Plant response rating, Morningglory [5, 17]: 100
Plant response rating, Morningglory [5, 18]: 100
Plant response rating, Morningglory [5, 19]: 100
Morningglory plant response rating [5, 20]: 100
Morningglory plant response rating [5, 21]: 100
Velvetleaf plant response rating [6, 14]: 90
Plant response rating, Velvetleaf [6, 15]: 100
Plant response rating, Velvetleaf [6, 16]: 100
Plant response rating, Velvetleaf [6, 17]: 50
Plant response rating, Velvetleaf [6, 18]: 80
Plant response rating, Velvetleaf [6, 19]: 95
Velvetleaf plant response rating [6, 20]: 100
Velvetleaf plant response rating [6, 21]: 95
Crabgrass, Large plant response rating [7, 14]: 10
Plant response rating, Crabgrass, Large [7, 15]: 30
Plant response rating, Crabgrass, Large [7, 16]: 35
Plant response rating, Crabgrass, Large [7, 17]: 0
Plant response rating, Crabgrass, Large [7, 18]: 35
Plant response rating, Crabgrass, Large [7, 19]: 98
Crabgrass, Large plant response rating [7, 20]: 100
Crabgrass, Large plant response rating [7, 21]: 20
Lambsquarters plant response rating [8, 14]: 70
Plant response rating, Lambsquarters [8, 15]: 95
Plant response rating, Lambsquarters [8, 16]: 90
Plant response rating, Lambsquarters [8, 17]: 100
Plant response rating, Lambsquarters [8, 18]: 100
Plant response rating, Lambsquarters [8, 19]: 100
Lambsquarters plant response rating [8, 20]: 100
Lambsquarters plant response rating [8, 21]: 70
Waterhemp plant response rating [9, 14]: 50
Plant response rating, Waterhemp [9, 15]: 85
Plant response rating, Waterhemp [9, 16]: 100
Plant response rating, Waterhemp [9, 17]: 90
Plant response rating, Waterhemp [9, 18]: 98
Plant response rating, Waterhemp [9, 19]: 100
Waterhemp plant response rating [9, 20]: 100
Waterhemp plant response rating [9, 21]: 65
Foxtail, Giant plant response rating [10, 14]: 70
Plant response rating, Foxtail, Giant [10, 15]: 85
Plant response rating, Foxtail, Giant [10, 16]: 95
Plant response rating, Foxtail, Giant [10, 17]: 45
Plant response rating, Foxtail, Giant [10, 18]: 80
Plant response rating, Foxtail, Giant [10, 19]: 90
Foxtail, Giant plant response rating [10, 20]: 100
Foxtail, Giant plant response rating [10, 21]: 70
Blackgrass plant response rating [11, 14]: 5
Plant response rating, Blackgrass [11, 15]: 5
Plant response rating, Blackgrass [11, 16]: 25
Plant response rating, Blackgrass [11, 17]: 30
Plant response rating, Blackgrass [11, 18]: 60
Plant response rating, Blackgrass [11, 19]: 70
Blackgrass plant response rating [11, 20]: 80
Blackgrass plant response rating [11, 21]: 5
Nutsedge, Yellow plant response rating [12, 14]: 90
Plant response rating, Nutsedge, Yellow [12, 15]: 90
Plant response rating, Nutsedge, Yellow [12, 16]: 90
Plant response rating, Nutsedge, Yellow [12, 17]: 10
Plant response rating, Nutsedge, Yellow [12, 18]: 30
Plant response rating, Nutsedge, Yellow [12, 19]: 90
Nutsedge, Yellow plant response rating [12, 20]: 95
Nutsedge, Yellow plant response rating [12, 21]: 90
Corn plant response rating (corn (Zea mays); [14]): 0
Plant response rating, Corn (corn (Zea mays); [15]): 5
Plant response rating, Corn (corn (Zea mays); [16]): 10
Plant response rating, Corn (corn (Zea mays); [17]): 0
Plant response rating, Corn (corn (Zea mays); [19]): 0
Corn plant response rating (corn (Zea mays); [20]): 35
Corn plant response rating (corn (Zea mays); [21]): 5
Barnyardgrass plant response rating [13, 14]: 90
Plant response rating, Barnyardgrass [13, 15]: 95
Plant response rating, Barnyardgrass [13, 16]: 98
Plant response rating, Barnyardgrass [13, 17]: 5
Plant response rating, Barnyardgrass [13, 18]: 90
Plant response rating, Barnyardgrass [13, 19]: 100
Barnyardgrass plant response rating [13, 20]: 100
Barnyardgrass plant response rating [13, 21]: 95

COC(=O)Oc1c(C)nn(C)c(=O)c1-c1ccc(F)c2ccccc12 [Compound 130]
Plant response rating, Soybean (soybean (Glycine max); [22]): 10
Soybean plant response rating (soybean (Glycine max); [23]): 15
Plant response rating, Soybean (soybean (Glycine max); [16]): 50
Soybean plant response rating (soybean (Glycine max); [24]): 25
Plant response rating, Ryegrass, Italian [1, 22]: 90
Ryegrass, Italian plant response rating [1, 23]: 90
Plant response rating, Ryegrass, Italian [1, 16]: 95
Ryegrass, Italian plant response rating [1, 24]: 95
Plant response rating, Galium [2, 22]: 95
Galium plant response rating [2, 23]: 95
Plant response rating, Galium [2, 16]: 98
Galium plant response rating [2, 24]: 95
Plant response rating, Wheat [3, 22]: 0
Wheat plant response rating [3, 23]: 5
Plant response rating, Wheat [3, 16]: 15
Wheat plant response rating [3, 24]: 10
Plant response rating, Pigweed [4, 22]: 50
Pigweed plant response rating [4, 23]: 70
Plant response rating, Pigweed [4, 16]: 90
Pigweed plant response rating [4, 24]: 90
Plant response rating, Morningglory [5, 22]: 75
Morningglory plant response rating [5, 23]: 80
Plant response rating, Morningglory [5, 16]: 100
Morningglory plant response rating [5, 24]: 85
Plant response rating, Velvetleaf [6, 22]: 75
Velvetleaf plant response rating [6, 23]: 70
Plant response rating, Velvetleaf [6, 16]: 98
Velvetleaf plant response rating [6, 24]: 98
Plant response rating, Crabgrass, Large [7, 22]: 10
Crabgrass, Large plant response rating [7, 23]: 15
Plant response rating, Crabgrass, Large [7, 16]: 60
Crabgrass, Large plant response rating [7, 24]: 15
Plant response rating, Lambsquarters [8, 22]: 90
Lambsquarters plant response rating [8, 23]: 98
Plant response rating, Lambsquarters [8, 16]: 100
Lambsquarters plant response rating [8, 24]: 100
Plant response rating, Waterhemp [9, 22]: 70
Waterhemp plant response rating [9, 23]: 85
Plant response rating, Waterhemp [9, 16]: 98
Waterhemp plant response rating [9, 24]: 80
Plant response rating, Foxtail, Giant [10, 22]: 20
Foxtail, Giant plant response rating [10, 23]: 20
Plant response rating, Foxtail, Giant [10, 16]: 70
Foxtail, Giant plant response rating [10, 24]: 40
Plant response rating, Blackgrass [11, 22]: 30
Blackgrass plant response rating [11, 23]: 35
Plant response rating, Blackgrass [11, 16]: 60
Blackgrass plant response rating [11, 24]: 55
Plant response rating, Nutsedge, Yellow [12, 22]: 55
Nutsedge, Yellow plant response rating [12, 23]: 75
Plant response rating, Nutsedge, Yellow [12, 16]: 85
Nutsedge, Yellow plant response rating [12, 24]: 80
Plant response rating, Corn (corn (Zea mays); [22]): 5
Corn plant response rating (corn (Zea mays); [23]): 5
Plant response rating, Corn (corn (Zea mays); [16]): 15
Corn plant response rating (corn (Zea mays); [24]): 5
Plant response rating, Barnyardgrass [13, 22]: 30
Barnyardgrass plant response rating [13, 23]: 30
Plant response rating, Barnyardgrass [13, 15]: 35
Plant response rating, Barnyardgrass [13, 16]: 55

Source: US10597388B2, “Pyridazinone herbicides” (FMC CORPORATION, priority 2014, dated 2020)
